Entries after “also recorded” stand apart in the source; their conditions may differ.
Columns and labels:
HeLa MKYP cells [1] = assay: Human mitophagy assay (HeLa mKeima assay, FACS); format: cell-based
Procedure, shortened: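 HeLa cells carrying the pH-sensitive mtKeima tag incubated 16 h with compound at several concentrations, then 1 uM FCCP/oligomycin for 6 h. FACS detects mitochondria in lysosomes through the Keima emission shift, quantified as percentage of cells in mitophagy.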

pS129 α-syn = assay: Preformed fibril (PFF) model in primary neuron culture, pS129 α-syn; format: cell-based; details: increasing doses
Description: 4. Preformed Fibril Model
(§1) Mouse and human alpha-synuclein monomers have been sourced commercially, then pre-formed fibrils have been generated as per the detailed protocol provided by the MJFF. For in vitro experiments primary hippocampal neurons isolated from P0 pups were grown for 7 days after which PFFs at 5 ug/ml were introduced Pre-formed fibrils will be introduced via stereotactic injection into the striatum of wt (C57BL/6J, Jax #000664) and transgenic A53T mice (B6;C3-Tg(Prnp-SNCA*A53T)83Vle/J, Jax #004479). Cohorts of drug-treated (oral gavage) and untreated animals will then be allowed to age for up to 6 months, at which point they will be sacrificed and perfused. Brains will be removed and fixed, then sectioned for analysis. We anticipate that untreated A53T animals will show significant spreading of aggregated alpha-synuclein pathology and pS129 staining, as well as some possible neurodegeneration; wt animals are also expected to show pS129 synuclein staining and synuclein aggregation, albeit less than that seen in the A53T background.

HeLa MKYP cells [2] = assay: Cell death measured by DAPI staining, with 1 μM FCCP/oligomycin or no toxin (no FO); format: cell-based
Procedure, shortened: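 HeLa MKYP cells were treated with compounds alongside 1 μM FCCP/oligomycin or no toxin for 6 or 6.5 h. Cell death was scored by DAPI staining, with H2O2 treatment as the death control.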

[3] = Mitotoxicity / Mitotox safety margin (therapeutic window); format: cell-based
KIM-1 = assay: Cisplatin challenge, kidney injury marker (KIM-1) in urine; format: in vivo, mice (C57Bl/6); details: 10 mg/kg cisplatin i.p., oral gavage QD, day 3 post-challenge
Description: (§2) Mice were provided at least one week of acclimation to the animal facility and group housed. Mice were injected intraperitoneally with 1 mg/ml cisplatin solution (BluePoint Labs) or 10 ml/kg sterile-filtered saline using 29G insulin syringes. Mice were weighed and administered vehicle, 35985 or 40180 by oral gavage per the dosing regimens noted in the figures. Mice were monitored for excessive weight loss and euthanized if moribund.
(§3) 35985 and 40180 are formulated at ten-fold the dosing concentration in NMP (N-methylpyrrolidone) followed by dilution with solutol-15 and water for a final vehicle concentration of 10% NMP/10% solutol-15/80% water.
Urine was collected from scruffed mice (serial collection) or directly from bladder using insulin syringe during harvest (terminal collection). KIM-1 was measured in mouse urine using R&D System's Mouse TIM-1/KIM-1/HAVCR DuoSet ELISA following manufacturer's published protocol.
Referring to FIG. 36, mice (C57Bl/6) were challenged with a single intraperitoneal dose of 10 mg/kg cisplatin or saline and dosed by oral gavage once per day (QD) with 40180.

Gdf15, Tnfrsf12a = assay: Cisplatin challenge, kidney expression of mitochondrial-stress related genes (quantitative PCR); format: in vivo, mice (C57Bl/6); details: 10 mg/kg cisplatin i.p., oral gavage QD for three days
Description: as §2, §3
RNA was isolated from kidney samples using Rneasy Mini kit (Qiagen) according to its product manual. RNA concentration was measured using NanoDrop™ 2000/2000c Spectrophotometers (Thermo Scientific). 50 ng of RNA for each sample was used to generate cDNA. cDNA was synthesized using High-Capacity RNA-to-cDNA™ Kit (Thermo Scientific) according to its product manual. Quantitative PCR was performed using Power SYBR™ Green PCR Master Mix (Applied Biosystems) according to its product manual. The following primers were used to analyze gene expression levels in the kidney: […]
All gene expression levels were normalized to expression levels of beta-actin using ΔΔCt and expressed as fold change relative to cisplatin vehicle treated mice. […]

Parkin = Parkin recruitment to mitochondria (HeLa cells expressing YFP-tagged Parkin, longitudinal imaging); format: cell-based, human; details: FCCP and Oligomycin, cells with Parkin recruited at 60 minutes, FIG. 29
Description: HeLa cells expressing a YFP-tagged Parkin were treated with […] of FCCP and Oligomycin followed by the specified dose of compound, then analyzed by longitudinal imaging. Percentage of cells with Parkin recruited to mitochondria at 60 minutes is shown.

cleaved caspase-3 = assay: Cleaved caspase-3 levels in primary neuron culture; format: cell-based; details: compared with toxins
pathologic (pS129) α-syn = assay: In vivo α-syn (PFF) model, pathologic pS129 α-syn in striatum; set-up: species or system mice; details: oral BID dosing at 50, 25, 12.5, and 6.25 mg/kg
Description: FIG. 9A and FIG. 9B show representative in vivo data of EP-0040180 in an α-syn (PFF) model.
as §1

c1ccc2c(c1)OC[C@H](N1CCOCC1)[C@H]2Nc1ncnc2[nH]c(C3CC3)cc12 (single isomer, unassigned) [EP-0040180]
percentage of cells undergoing mitophagy (HeLa MKYP cells [1]; HeLa cells expressing mtKeima, FCCP and Oligomycin, FACS, FIG. 28): induce mitophagy in a dose dependent manner; also recorded: dose responsive increase in the percentage of cells undergoing mitophagy | EC50 (HeLa MKYP cells [1]; Homo sapiens, HeLa, read-out: Mitophagy induction EC50): 260 nM | pS129 α-syn (250-12) in primary neuron culture (pS129 α-syn): reduces | pS129 α-syn (monomer) in primary neuron culture (pS129 α-syn): reduces | pS129 α-syn in primary neuron culture (pS129 α-syn): reduces | Highest safe dose (cytotoxicity; no FO; safe means DAPI+ <20%) (HeLa MKYP cells [2]; no FO, safe means DAPI+ <20%): 25.0 µM | Max % death with 1 μM FO (HeLa MKYP cells [2]; with 1 μM FO): 10.4% | Mito-Safety Index (highest safe dose/EC50) ([3]; highest safe dose/EC50): 97.54 | Highest safe dose (μM) (mitotox or cytotox) ([3]; mitotox or cytotox): 25.0 µM | KIM-1 (kidney-injury marker 1), urine (KIM-1): dose-dependent rescue of KIM-1; also recorded: reduces KIM-1 | expression of mitochondrial-stress related genes Gdf15 and Tnfrsf12a in kidney (Gdf15, Tnfrsf12a): reduced expression of these genes in a dose-responsive manner; also recorded: reduces expression of mitochondrial-stress related genes | Parkin recruitment to mitochondria (Parkin): accelerate recruitment of Parkin to mitochondria; also recorded: dose responsive increase in the rate of Parkin recruitment to mitochondria | cleaved caspase-3 levels (cleaved caspase-3): do not significantly alter | pathologic (pS129) α-syn (250-12) from the striatum induced by PFF challenge (pathologic (pS129) α-syn): significantly reduces | pathologic (pS129) α-syn (monomer) from the striatum induced by PFF challenge (pathologic (pS129) α-syn): significantly reduces
